The record followed here is patent publication US20230270797A1, “NOVEL STRAIN OF THE SPECIES LACTICASEIBADLLUS RHAMNOSUS, COMPOSITIONS THEREOF AND USE THEREOF IN THE TREATMENT OF GENITOURINARY INFECTIONS” (URIACH ITALY S.R.L., priority 2020, published 2023).

Each structure is given as a SMILES string.

The assay in a line: Antioxidant activity, linoleic acid peroxidation (ferric thiocyanate). As to conditions: cell free supernatant; linoleic acid 50 mM; negative control (MRS broth) Abs500 nm = 2. Format: biochemical. On the procedure: Oxidation was measured by determining ferric thiocyanate. Butylated hydroxytoluene (BHT) and α-tocopherol (1 mg/mL) were used as positive controls. MRS broth was used as negative control. […] The analysis was carried out in triplicate.

Turning to `Cc1c(C)c2c(c(C)c1O)CC[C@@](C)(CCC[C@H](C)CCC[C@H](C)CCCC(C)C)O2` [positive control, α-tocopherol], the “Antioxidant activity, absorbance values at 500nm” value is “positive control: Abs500 nm = 0.25)”.
